Patent US9975921B2, “Crystal forms of anamorelin” (Helsinn Healthcare SA, priority 2004, dated 2018)
Blank lines part the entries; values can stand above or below the compound they belong to.

Assays:
Assay type in all cases: physicochemical
[1] = Hygroscopicity study: Dynamic Vapor Sorption analysis (DVS)
Experimental: (§1) The hygroscopicity of (3R)-1-(2-methylalanyl-D-tryptophyl)-3-(phenylmethyl)-3-piperidinecarboxylic acid 1,2,2-trimethylhydrazide form C produced by the method disclosed in Example 4 (monohydrate) was evaluated using Dynamic Vapor Sorption analysis (DVS) and Thermogravimetric analysis (TGA). Dynamic Vapor Sorption Analysis (DVS)
The samples were analyzed using a Hiden IGAsorp vapor sorption analyzer. Each sample was placed in a sample pan and exposed to drying at 25° C. in a dry nitrogen stream for two hours. This assured that the samples being analyzed were at a constant weight prior to the start of the analysis. The samples were then analyzed at 25.0° C. The adsorption isotherm was conducted between: 10-90% RH with a step size of 10%. The desorption isotherm was conducted between 85-0% RH with a step size 10%. After the isotherms were complete, each of the samples were heated to 125° C. until the weight loss curve reached an asymptote or for 4 hours.

[2] = Hygroscopicity study: Thermogravimetric analysis (TGA); settings: before DVS
Experimental: as §1
The samples were analyzed using a Mettler 851e thermogravimetric analyzer. Samples were weighed into a crucible. The samples were heated from 30° C. to 300.0° C. ramped at 10.00° C./min with an air purge.

[3] = 12 month stability study: crystallinity using optical microscopy (USP <695>)
Experimental: (§2) Crystalline (3R)-1-(2-methylalanyl-D-tryptophyl)-3-(phenylmethyl)-3-piperidinecarboxylic acid 1,2,2-trimnethylhydrazide was placed in double plastic bags, closed under a nitrogen blanket, and placed inside a small fiberboard container, the physical appearance, water content, purity and crystallinity were tested every three months for a period of 12 months under a variety of conditions.

[4] = 12 month stability study: HPLC weight % (TM-808)
Experimental: as §2
(§3) The purity and water content of (3R)-1-(2-methylalanyl-D-tryptophyl)-3-(phenylmethyl)-3-piperidinecarboxylic acid 1,2,2-trimethylhydrazide was analyzed using HPLC and KF respectively before, during, and after the 12 month stability study.

[5] = 12 month stability study: DSC (USP <891>)
Experimental: as §2

[6] = 12 month stability study: water content by Karl Fischer; settings: 1 month
[7] = 12 month stability study: HPLC area % (TM-808)
Experimental: as §2, §3

[8] = 12 month stability study: water content by Karl Fischer
Experimental: as §2, §3

[9] = 12 month stability study: physical description (TM-106)
Experimental: as §2

relative humidity above which the dihydrate was formed ([1]; DVS): > 35% | water contained after steady adsorption ([1]; adsorption isotherm, 25.0° C., at 35% RH): 6 % by weight | relative humidity down to which the dihydrate form was observed ([1]; desorption isotherm): 30 % RH | bound water initially contained [2]: 2.5 % by weight
SMILES: CN(C)N(C)C(=O)[C@@]1(Cc2ccccc2)CCCN(C(=O)[C@@H](Cc2c[nH]c3ccccc23)NC(=O)C(C)(C)N)C1 [Form C monohydrate, (3R)-1-(2-methylalanyl-D-tryptophyl)-3-(phenylmethyl)-3-piperidinecarboxylic acid 1,2,2-trimethylhydrazide]
additional adsorption ([1]; adsorption isotherm, up to 90% RH): No other significant additional adsorption

Crystallinity using Optical Microscopy ([3]; 5° C., 1 month): Crystal- | Crystallinity using Optical Microscopy ([3]; 5° C., 3 months): Crystal- | Crystallinity using Optical Microscopy ([3]; 5° C., 6 months): Crystal- | Crystallinity using Optical Microscopy ([3]; 5° C., 9 months): Crystal- | Crystallinity using Optical Microscopy ([3]; 5° C., 12 months): Crystal- | Crystallinity using Optical Microscopy ([3]; 25° C. 60% RH, 1 month): Crystal- | Crystallinity using Optical Microscopy ([3]; 25° C. 60% RH, 3 months): Crystal- | Crystallinity using Optical Microscopy ([3]; 25° C. 60% RH, 6 months): Crystal- | Crystallinity using Optical Microscopy ([3]; 25° C. 60% RH, 9 months): Crystal- | Crystallinity using Optical Microscopy ([3]; 25° C. 60% RH, 12 months): Crystal- | Crystallinity using Optical Microscopy ([3]; 40° C. 75% RH, 1 month): Crystal- | Crystallinity using Optical Microscopy ([3]; 40° C. 75% RH, 3 months): Crystal- | Crystallinity using Optical Microscopy ([3]; 40° C. 75% RH, 6 months): Crystal- | Crystallinity using Optical Microscopy ([3]; Initial): Crystal- | HPLC Weight % ([4]; 5° C., 1 month): 92.0% | HPLC Weight % ([4]; 5° C., 3 months): 93.2% | HPLC Weight % ([4]; 5° C., 6 months): 93.9% | HPLC Weight % ([4]; 5° C., 9 months): 94.5% | HPLC Weight % ([4]; 5° C., 12 months): 94.3% | HPLC Weight % ([4]; 25° C. 60% RH, 1 month): 92.1% | HPLC Weight % ([4]; 25° C. 60% RH, 3 months): 93.2% | HPLC Weight % ([4]; 25° C. 60% RH, 6 months): 94.2% | HPLC Weight % ([4]; 25° C. 60% RH, 9 months): 94.6% | HPLC Weight % ([4]; 25° C. 60% RH, 12 months): 94.2% | HPLC Weight % ([4]; 40° C. 75% RH, 1 month): 91.8% | HPLC Weight % ([4]; 40° C. 75% RH, 3 months): 93.0% | HPLC Weight % ([4]; 40° C. 75% RH, 6 months): 94.1% | HPLC Weight % ([4]; Initial): 99.8% | DSC Onset ([5]; 5° C., 3 months): 112.1 °C | DSC Peak ([5]; 5° C., 3 months): 117.1 °C | DSC Onset ([5]; 5° C., 6 months): 112.3 °C | DSC Peak ([5]; 5° C., 6 months): 116.9 °C | DSC Onset ([5]; 25° C. 60% RH, 3 months): 112.6 °C | DSC Peak ([5]; 25° C. 60% RH, 3 months): 117.7 °C | DSC Onset ([5]; 25° C. 60% RH, 6 months): 112.5 °C | DSC Peak ([5]; 25° C. 60% RH, 6 months): 117 °C | DSC Onset ([5]; 40° C. 75% RH, 3 months): 112.2 °C | DSC Peak ([5]; 40° C. 75% RH, 3 months): 117.5 °C | DSC Onset ([5]; 40° C. 75% RH, 6 months): 125.5 °C | DSC Peak ([5]; 40° C. 75% RH, 6 months): 117.8 °C | DSC Onset ([5]; Initial): 108.2 °C | DSC Peak ([5]; Initial): 112.7 °C | Water content by Karl Fisher ([6]; 5° C.): 5.3% | Water content by Karl Fisher ([6]; 25° C. 60% RH): 5.8% | Water content by Karl Fisher ([6]; 40° C. 75% RH): 6.1% | HPLC Area % ([7]; 5° C., 1 month): 99.7% | HPLC Area % ([7]; 5° C., 3 months): 99.7% | HPLC Area % ([7]; 5° C., 6 months): 99.7% | HPLC Area % ([7]; 5° C., 9 months): 99.8% | HPLC Area % ([7]; 5° C., 12 months): 99.7% | HPLC Area % ([7]; 25° C. 60% RH, 1 month): 99.7% | HPLC Area % ([7]; 25° C. 60% RH, 3 months): 99.7% | HPLC Area % ([7]; 25° C. 60% RH, 6 months): 99.7% | HPLC Area % ([7]; 25° C. 60% RH, 9 months): 99.8% | HPLC Area % ([7]; 25° C. 60% RH, 12 months): 99.7% | HPLC Area % ([7]; 40° C. 75% RH, 1 month): 99.7% | HPLC Area % ([7]; 40° C. 75% RH, 3 months): 99.7% | HPLC Area % ([7]; 40° C. 75% RH, 6 months): 99.7% | HPLC Area % ([7]; Initial): 99.8% | purity ([7]; after 12 months): relatively unchanged | Water content by Karl Fisher ([8]; 5° C., 3 months): 6.0% | Water content by Karl Fisher ([8]; 5° C., 6 months): 5.8% | Water content by Karl Fisher ([8]; 5° C., 9 months): 5.6% | Water content by Karl Fisher ([8]; 5° C., 12 months): 6.1% | Water content by Karl Fisher ([8]; 25° C. 60% RH, 3 months): 6.0% | Water content by Karl Fisher ([8]; 25° C. 60% RH, 6 months): 5.9% | Water content by Karl Fisher ([8]; 25° C. 60% RH, 9 months): 5.7% | Water content by Karl Fisher ([8]; 25° C. 60% RH, 12 months): 5.8% | Water content by Karl Fisher ([8]; 40° C. 75% RH, 3 months): 6.1% | Water content by Karl Fisher ([8]; 40° C. 75% RH, 6 months): 5.9% | water content (Karl Fischer Analysis) ([8]; after 12 months): approximately 6% | Physical Description ([9]; 5° C., 1 month): Off-white | Physical Description ([9]; 5° C., 3 months): Off-white | Physical Description ([9]; 5° C., 6 months): Off-white | Physical Description ([9]; 5° C., 9 months): White | Physical Description ([9]; 5° C., 12 months): Off-white | Physical Description ([9]; 25° C. 60% RH, 1 month): Off-white | Physical Description ([9]; 25° C. 60% RH, 3 months): Off-white | Physical Description ([9]; 25° C. 60% RH, 6 months): Off-white | Physical Description ([9]; 25° C. 60% RH, 9 months): Off-white | Physical Description ([9]; 25° C. 60% RH, 12 months): Off-white | Physical Description ([9]; 40° C. 60% RH, 1 month): Off-white | Physical Description ([9]; 40° C. 60% RH, 3 months): Off-white | Physical Description ([9]; 40° C. 60% RH, 6 months): Off-white | Physical Description ([9]; Initial): Off-white
SMILES: CN(C)N(C)C(=O)[C@@]1(Cc2ccccc2)CCCN(C(=O)[C@@H](Cc2c[nH]c3ccccc23)NC(=O)C(C)(C)N)C1 [crystalline anamorelin, (3R)-1-(2-methylalanyl-D-tryptophyl)-3-(phenylmethyl)-3-piperidinecarboxylic acid 1,2,2-trimethylhydrazide]
